Measurements: patent US5736545A, “Azolyl piperazinyl phenyl oxazolidinone antimicrobials” (Pharmacia & Upjohn Company, priority 1997, dated 1998)
In brackets after ≈: the same amount, converted by molar mass. Where two headings read alike, the source gives them in different places.

What was measured:
[1] = test system: S. aureus UC ® 9213; assay: In vitro MIC by agar dilution (NCCLS), Gram-positive bacteria: S. aureus; format: cell-based, Staphylococcus aureus; settings: for MIC: Staphylococcus aureus
Source text: The oxazolidinone antibacterial agents of this invention have useful activity against a variety of organisms. The in vitro activity of compounds of this invention can be assessed by standard testing procedures such as the determination of minimum inhibitory concentration (MIC) by agar dilution as described in "Methods for Dilution Antimicrobial Susceptibility Tests for Bacteria That Grow Aerobically" (MFT) published January 1983 by the National Committee for Clinical Laboratory Standards, 771 East Lancaster Avenue, Villanova, Pa. 19084, USA. The activity of selected compounds of this invention against Staphylococcus aureus and Streptococcus pneumoniae are shown in Table 1.
^a Minimum inhibitory concentration: lowest concentration of drug
(μg/mL) that inhibits visible growth of the organism.

[2] = test system: E. Faecalis UC ® 9217; assay: In vitro MIC by agar dilution (NCCLS), Gram-positive bacteria: E. faecalis; format: cell-based; settings: for MIC: Enterococcus faecalis
[3] = UC9213, S. aureus UC 9213, agar dilution, read-out: MIC (minimum inhibitory concentration: lowest concentration of drug that inhibits visible growth of the organism)
[4] = UC9217, E. Faecalis UC 9217, agar dilution, read-out: MIC (minimum inhibitory concentration: lowest concentration of drug that inhibits visible growth of the organism)

In the case of `CC(=O)NC[C@H]1CN(c2ccc(N3CCNCC3)c(F)c2)C(=O)O1` [XLII, reference compound], the MIC [1, 3] was > 64 µg/mL and the MIC [2, 4] was 32 µg/mL (≈ 95.1 µM).
Work on `CC(=O)NC[C@H]1CN(c2ccc(N3CCN(c4nc5cc([N+](=O)[O-])ccc5o4)CC3)c(F)c2)C(=O)O1` [Example 4, (S)--N--[[3-[3-Fluoro-4-[4-(5-nitrobenzoxazol-2-yl)-1-piperazinyl]phenyl]-2-oxo-5-oxazolidinyl]methyl]acetamide] yielded an MIC [1, 3] of 1 µg/mL (≈ 2.01 µM) and an MIC [2, 4] of 1 µg/mL (≈ 2.01 µM).
`CC(=O)NC[C@H]1CN(c2ccc(N3CCN(c4nc5cc(F)ccc5o4)CC3)c(F)c2)C(=O)O1` [Example 7, (S)--N--[[3-[3-Fluoro-4-[4-(5-fluorobenzoxazol-2-yl)-1-piperazinyl]phenyl]-2-oxo-5-oxazolidinyl]methyl]acetamide] showed an MIC [1, 3] of 4 µg/mL (≈ 8.48 µM) and an MIC [2, 4] of 4 µg/mL (≈ 8.48 µM).
With `CC(=O)NC[C@H]1CN(c2ccc(N3CCN(c4nc5ccccc5o4)CC3)c(F)c2)C(=O)O1` [Example 3, (S)--N--[[3-[4-[4-(2-Benzoxazolyl)-1-piperazinyl]-3-fluorophenyl]-2-oxo-5-oxazolidinyl]methyl]acetamide] the MIC [1, 3] was 2 µg/mL (≈ 4.41 µM) and the MIC [2, 4] was 2 µg/mL (≈ 4.41 µM).
In the case of `CC(=O)NC[C@H]1CN(c2ccc(N3CCN(C4=NCCS4)CC3)c(F)c2)C(=O)O1` [Example 11, (S)--N--[[3-[4-[4-(4,5-Dihydro-2-thiazolyl)-1-piperazinyl]-3-fluorophenyl]-2-oxo-5-oxazolidinyl]methyl]acetamide], the MIC [1, 3] was 2 µg/mL (≈ 4.74 µM) and the MIC [2, 4] was 1 µg/mL (≈ 2.37 µM).
`CC(=O)NC[C@H]1CN(c2ccc(N3CCN(C4=NCCO4)CC3)c(F)c2)C(=O)O1` [Example 12, (S)--N--[[3-[4-[4-(4,5-Dihydro-2-oxazolyl)-1-piperazinyl]-3-fluorophenyl]-2-oxo-5-oxazolidinyl]methyl]acetamide] showed an MIC [1, 3] of 32 µg/mL (≈ 78.9 µM) and an MIC [2, 4] of 4 µg/mL (≈ 9.87 µM).
`CN[C@H](CC(C)C)C(=O)N[C@H]1C(=O)N[C@@H](CC(N)=O)C(=O)N[C@H]2C(=O)N[C@H]3C(=O)N[C@H](C(=O)N[C@H](C(=O)O)c4cc(O)cc(O)c4-c4cc3ccc4O)[C@H](O)c3ccc(c(Cl)c3)Oc3cc2cc(c3O[C@@H]2O[C@H](CO)[C@@H](O)[C@H](O)[C@H]2O[C@H]2C[C@](C)(N)[C@H](O)[C@H](C)O2)Oc2ccc(cc2Cl)[C@H]1O` [Vancomycin, reference compound] showed an MIC ([1]; UC9213, read-out: MIC (minimum inhibitory concentration: lowest concentration of drug that inhibits visible growth of the organism)) of 1 µg/mL (≈ 0.69 µM) and an MIC ([2]; UC9217, read-out: MIC (minimum inhibitory concentration: lowest concentration of drug that inhibits visible growth of the organism)) of 4 µg/mL (≈ 2.76 µM).
With `CC(=O)NC[C@H]1CN(c2ccc(N3CCN(c4nnc(C)s4)CC3)c(F)c2)C(=O)O1` [Example 17, (S)--N--[[3-[3-Fluoro-4-[4-(5-methyl-1,3,4-thiadiazol-2-yl)-1-piperazinyl]phenyl]-2-oxo-5-oxazolidinyl]methyl]acetamide] the MIC [1, 3] was 0.5 µg/mL (≈ 1.15 µM) and the MIC [2, 4] was 1 µg/mL (≈ 2.3 µM).
`CC(=O)NC[C@H]1CN(c2ccc(N3CCN(c4nc(=O)n(-c5ccccc5)s4)CC3)c(F)c2)C(=O)O1` [Example 26, (S)--N--[[3-[3-Fluoro-4-[4-(2-phenyl-3-oxo-1,2,4-thiadiazol-5-yl)-1-piperazinyl]phenyl]-2-oxo-5-oxazolidinyl]methyl]acetamide] showed an MIC [1, 3] of 8 µg/mL (≈ 15.6 µM) and an MIC [2, 4] of 4 µg/mL (≈ 7.8 µM).
`CC(=O)NC[C@H]1CN(c2ccc(N3CCN(c4nc5ccc(F)cc5o4)CC3)c(F)c2)C(=O)O1` [Example 8, (S)--N--[[3-[3-Fluoro-4-[4-(6-fluorobenzoxazol-2-yl)-1-piperazinyl]phenyl]-2-oxo-5-oxazolidinyl]methyl]acetamide] gave an MIC [1, 3] of 2 µg/mL (≈ 4.24 µM) and an MIC [2, 4] of 1 µg/mL (≈ 2.12 µM).
Work on `CC(=O)NC[C@H]1CN(c2ccc(N3CCN(c4nc(C)ns4)CC3)c(F)c2)C(=O)O1` [Example 25] yielded an MIC [1, 3] of 2 µg/mL (≈ 4.6 µM) and an MIC [2, 4] of 1 µg/mL (≈ 2.3 µM).
For `CC(=O)NC[C@H]1CN(c2ccc(N3CCN(c4nc5ccccc5s4)CC3)c(F)c2)C(=O)O1` [Example 1, (S)--N--[[3-[4-[4-(2-Benzothiazolyl)-1-piperazinyl]-3-fluorophenyl]-2-oxo-5-oxazolidinyl]methyl]acetamide], the MIC [1, 3] was 4 µg/mL (≈ 8.52 µM) and the MIC [2, 4] was 2 µg/mL (≈ 4.26 µM).
In the case of `CC(=O)NC[C@H]1CN(c2ccc(N3CCN(c4nnc(N)s4)CC3)c(F)c2)C(=O)O1` [Example 18], the MIC [1, 3] was 2 µg/mL (≈ 4.59 µM) and the MIC [2, 4] was 2 µg/mL (≈ 4.59 µM).
For `CC(=O)NC[C@H]1CN(c2ccc(N3CCN(c4nccs4)CC3)c(F)c2)C(=O)O1` [Example 5, (S)--N--[[3-[3-Fluoro-4-[4-(2-thiazolyl)-1-piperazinyl]phenyl]-2-oxo-5-oxazolidinyl]methyl]acetamide], the MIC [1, 3] was 2 µg/mL (≈ 4.77 µM) and the MIC [2, 4] was 1 µg/mL (≈ 2.38 µM).
`CCOC(=O)c1nnc(N2CCN(c3ccc(N4C[C@H](CNC(C)=O)OC4=O)cc3F)CC2)s1` [Example 19, (S)--N--[[3-[4-[4-(5-Ethoxycarbonyl-1,3,4-thiadiazol-2-yl)-3-fluoro-1-piperazinyl]phenyl]-2-oxo-5-oxazolidinyl]methyl]acetamide] was tested, and the MIC [1, 3] was 4 µg/mL (≈ 8.12 µM) and the MIC [2, 4] was 2 µg/mL (≈ 4.06 µM).
`CC(=O)NC[C@H]1CN(c2ccc(N3CCN(C4=NC(=O)CS4)CC3)c(F)c2)C(=O)O1` [Example 15] was tested, and the MIC [1, 3] was 2 µg/mL (≈ 4.59 µM) and the MIC [2, 4] was 1 µg/mL (≈ 2.3 µM).
With `CC(=O)NC[C@H]1CN(c2ccc(N3CCN(c4n[nH]c(=O)s4)CC3)c(F)c2)C(=O)O1` [Example 24, (S)--N--[[3-[3-Fluoro-4-[4-(5-oxo-1,3,4-thiadiazol-2-yl)-1-piperazinyl]phenyl]-2-oxo-5-oxazolidinyl]methyl]acetamide] the MIC [1, 3] was 1 µg/mL (≈ 2.29 µM) and the MIC [2, 4] was 1 µg/mL (≈ 2.29 µM).
`CC(=O)NC[C@H]1CN(c2ccc(N3CCN(c4ncc([N+](=O)[O-])s4)CC3)c(F)c2)C(=O)O1` [Example 2, (S)--N--[[3-[3-Fluoro-4-[4-(5-nitrothiazol-2-yl)-1-piperazinyl]phenyl]-2-oxo-5-oxazolidinyl]methyl]acetamide] showed an MIC [1, 3] of 2 µg/mL (≈ 4.31 µM) and an MIC [2, 4] of 2 µg/mL (≈ 4.31 µM).
Compound `CC(=O)NC[C@H]1CN(c2ccc(N3CCN(c4nc5ccc(F)c(F)c5o4)CC3)c(F)c2)C(=O)O1` [Example 10, (S)--N--[[3-[3-Fluoro-4-[4-(6,7-difluorobenzoxazol-2-yl)-1-piperazinyl]phenyl]-2-oxo-5-oxazolidinyl]methyl]acetamide] has an MIC [1, 3] of 2 µg/mL (≈ 4.09 µM) and an MIC [2, 4] of 2 µg/mL (≈ 4.09 µM).
`CC(=O)NC[C@H]1CN(c2ccc(N3CCN(c4nc5cccc(F)c5o4)CC3)c(F)c2)C(=O)O1` [Example 9, (S)--N--[[3-[3-Fluoro-4-[4-(7-fluorobenzoxazol-2-yl)-1-piperazinyl]phenyl]-2-oxo-5-oxazolidinyl]methyl]acetamide] was tested, and the MIC [1, 3] was 1 µg/mL (≈ 2.12 µM) and the MIC [2, 4] was 1 µg/mL (≈ 2.12 µM).
With `CC(=O)NC[C@H]1CN(c2ccc(N3CCN(c4nnc(C)o4)CC3)c(F)c2)C(=O)O1` [Example 27, (S)--N--[[3-[3-Fluoro-4-[4-(5-methyl-1,3,4-oxadiazol-2-yl)-1-piperazinyl]phenyl]-2-oxo-5-oxazolidinyl]methyl]acetamide] the MIC [1, 3] was 4 µg/mL (≈ 9.56 µM) and the MIC [2, 4] was 4 µg/mL (≈ 9.56 µM).
For “(S)--N--[[3-[4-[3-Fluoro-4-[(methyl-5-tetrazolyl)-1-piperazinyl]phenyl]-2-oxo-5-oxazolidinyl]methyl]acetamide [Example 14]”, the “MIC (minimum inhibitory concentration: lowest concentration of drug that inhibits visible growth of the organism)” value ([1]; S. aureus UC 9213, agar dilution) was 4 µg/mL and the “MIC (minimum inhibitory concentration: lowest concentration of drug that inhibits visible growth of the organism)” value ([2]; E. Faecalis UC 9217, agar dilution) was 2 µg/mL.
In the case of `CC(=O)NC[C@H]1CN(c2ccc(N3CCN(c4nc5ccc([N+](=O)[O-])cc5s4)CC3)c(F)c2)C(=O)O1` [Example 6, (S)--N--[[3-[3-Fluoro-4-[4-(6-nitrobenzothiazol-2-yl)-1-piperazinyl]phenyl]-2-oxo-5-oxazolidinyl]methyl]acetamide], the MIC [1, 3] was 0.5 µg/mL (≈ 0.972 µM) and the MIC [2, 4] was 0.5 µg/mL (≈ 0.972 µM).
With `CC(=O)NC[C@H]1CN(c2ccc(N3CCN(c4nnnn4-c4ccccc4)CC3)c(F)c2)C(=O)O1` [Example 13] the MIC [1, 3] was 4 µg/mL (≈ 8.32 µM) and the MIC [2, 4] was 4 µg/mL (≈ 8.32 µM).
For `CC(=O)NC[C@H]1CN(c2ccc(N3CCN(c4nnc(C(F)(F)F)s4)CC3)c(F)c2)C(=O)O1` [Example 20, (S)--N--[[3-[3-Fluoro-4-[4-(5-trifluoromethyl-1,3,4-thiadiazol-2-yl)-1-piperazinyl]phenyl]-2-oxo-5-oxazolidinyl]methyl]acetamide], the MIC [1, 3] was 4 µg/mL (≈ 8.19 µM) and the MIC [2, 4] was 2 µg/mL (≈ 4.09 µM).
For `CC(=O)NC[C@H]1CN(c2ccc(N3CCN(c4nncs4)CC3)c(F)c2)C(=O)O1` [Example 16, (S)--N--[[3-[3-Fluoro-4-[4-(1,3,4-thiadiazol-2-yl)-1-piperazinyl]phenyl]-2-oxo-5-oxazolidinyl]mehtyl]acetamide], the MIC [1, 3] was 1 µg/mL (≈ 2.38 µM) and the MIC [2, 4] was 1 µg/mL (≈ 2.38 µM).
